The text below walks through data of paper PMC4516563 (Biochimica et biophysica acta, 2015).

One data set relates to human colon HCT116. Conditions: disc diffusion, 30-45 ug per disc, 7-10 days; result in words. On the technique in general: Agar diffusion results depend on both activity and mobility in agar.
The next data set has as its system human brain U251N. As to conditions: disc diffusion, 30-45 ug per disc, 7-10 days; result in words.
The test system of data set [1] is human pancreatic cancer PANC1. Conditions: disc diffusion, 30-45 ug per disc, 7-10 days; result in words.
The conditions of data set [2]: pharmacokinetic studies, clinical trials in patients; cited from earlier work.

Regarding Kahalalide F [KF], the “cytotoxicity based on the zone assay, HCT-116” value with human colon HCT116 was “minimal”. Also, in the data set with human brain U251N, the “cytotoxicity based on the zone assay, U251N” value was “minimal”. Moreover, the “cytotoxicity based on the zone assay, PANC-1” value in data set [1] is “minimal”. In addition, the half-life entry in data set [2] is “approximately 30 min”.
